Data as given in patent US9732075B2, “Benzimidazole-proline derivatives” (IDORSIA PHARMACEUTICALS LTD, priority 2012, dated 2017).

Assays:
humans = details: cited from earlier work
rat [1] = details: cited from earlier work
rats [2] = details: cited from earlier work
rat [3] = details: cited from earlier work; remark: listed apart in the source
rats [4] = details: rats treated with the compound; cited from earlier work
[5] = system: amyloid precursor protein transgenic mice; details: after acute sleep restriction; cited from earlier work
mouse = details: administered chronically; cited from earlier work
rats [6] = details: fasted hungry rats exposed to food odors; cited from earlier work
rat [7] = details: cited from earlier work; remark: listed apart in the source
human orexin-1 receptor = human orexin-1 receptor (Homo sapiens (Human), UniProt O43613); test: In vitro assay: intracellular calcium measurements (FLIPR), antagonistic activity; type: cell-based; details: CHO cells expressing human orexin-1 receptor, orexin-A agonist, geometric mean, read-out: IC50 Ox1
How it was run: (§1)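 Dye-loaded CHO cells expressing either human orexin receptor are exposed to test antagonist for 120 min, then stimulated with orexin-A at 3 nM.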

human orexin-2 receptor = human orexin-2 receptor (Homo sapiens (Human), UniProt O43614); test: as above; type: cell-based; details: CHO cells expressing human orexin-2 receptor, orexin-A agonist, geometric mean, read-out: IC50 Ox2
How it was run: as §1

[8] = Measurement of brain and systemic concentration after oral administration; type: in vivo; details: 3 h after oral administration (100 mg/kg), male wistar rats, n=3
Method: Measurement of Brain and Systemic Concentration after Oral Administration:
In order to assess brain penetration, the concentration of the compound is measured in plasma ([P]), and brain ([B]), sampled 3 h (or at different time points) following oral administration (e.g. 100 mg/kg) to male wistar rats. The compounds are formulated e.g. in 100% PEG 400. Samples are collected in the same animal at the same time point (+/−5 min).
Blood is sampled from the vena cava caudalis into containers with EDTA as anticoagulant and centrifuged to yield plasma. Brain is sampled after cardiac perfusion of 10 mL NaCl 0.9% and homogenized into one volume of cold phosphate buffer (pH 7.4). All samples are extracted with MeOH and analyzed by LC-MS/MS. Concentrations are determined with the help of calibration curves.

Wistar rats = test: Sedative effects: EEG, EMG and behavioural indices of alertness recorded by radiotelemetry in vivo; details: 30 mg/kg po; effects analyzed over 6 hours; compared to vehicle controls
Method: Sedative Effects: EEG, EMG and Behavioural Indices of Alertness Recorded by Radiotelemetry In Vivo in Wistar Rats.
Electroencephalography (EEG) and Electromyography (EMG) signals were measured by telemetry using TL11M2-F20-EET miniature radiotelemetric implants (Data Science Int.) with two pairs of differential leads.
Surgical implantation was performed under general anesthesia with Ketamin/Xylazin, for cranial placement of one differential pair of EEG electrodes and one pair of EMG leads inserted in either side of the muscles of the neck. After surgery, rats recovered in a thermoregulated chamber and received analgesic treatment with subcutaneous buprenorphine twice a day for 2 d. They were then housed individually and allowed to recover for a minimum of 2 weeks. Thereafter, rats—in their home cage—were placed in a ventilated sound-attenuating box, on a 12-h light/12-h dark cycle, for acclimatization before continuous EEG/EMG recordings started. The telemetric technology that we used in this study allows accurate and stress-free acquisition of biosignals in rats placed in their familiar home cage environment, with no recording leads restricting their movements. Variables analyzed included four different stages of vigilance and sleep, spontaneous activity in the home cage and body temperature. Sleep and wake stages were evaluated using a rodent scoring software (Somnologica Science) directly processing electrical biosignals on 10 s contiguous epochs. The scoring is based on frequency estimation for EEG and amplitude discrimination for EMG and locomotor activity. Using these measurements, the software determines the probability that all components within each epoch best represent active waking (AW), quiet waking (QW), non-REM-sleep (NREM) or REM-sleep (REM). The percentage of total time spent in AW, QW, NREM- and REM-sleep was calculated per 12 h light or dark period. The latency to the onset of the first significant NREM- and REM-sleep episodes and the frequency and duration of those episodes were also calculated. AW, QW, NREM- and REM-sleep, home cage activity and body temperature were measured at baseline for at least one total circadian cycle (12 h-night, 12 h-day) before a test compound was administered. […] All variables were subsequently recorded for 12 h following administration of the orexin receptor antagonist.

rodents [9] = details: cited from earlier work
rodents [10] = details: repeated amphetamine administration; cited from earlier work

Sequence of human orexin-2 receptor (O43614 whole entry): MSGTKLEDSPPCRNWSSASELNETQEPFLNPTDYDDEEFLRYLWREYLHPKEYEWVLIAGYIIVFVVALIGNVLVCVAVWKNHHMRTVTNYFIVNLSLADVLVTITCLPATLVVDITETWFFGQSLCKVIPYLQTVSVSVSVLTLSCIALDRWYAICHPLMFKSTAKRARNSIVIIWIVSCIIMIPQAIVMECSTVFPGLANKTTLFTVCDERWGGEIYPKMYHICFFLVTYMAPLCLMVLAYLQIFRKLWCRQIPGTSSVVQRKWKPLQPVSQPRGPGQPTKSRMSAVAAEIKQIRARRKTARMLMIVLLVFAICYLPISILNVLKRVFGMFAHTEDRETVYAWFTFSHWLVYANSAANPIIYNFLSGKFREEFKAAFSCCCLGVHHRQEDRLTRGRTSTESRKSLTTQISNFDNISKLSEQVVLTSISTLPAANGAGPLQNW
Sequence of human orexin-1 receptor (O43613 whole entry): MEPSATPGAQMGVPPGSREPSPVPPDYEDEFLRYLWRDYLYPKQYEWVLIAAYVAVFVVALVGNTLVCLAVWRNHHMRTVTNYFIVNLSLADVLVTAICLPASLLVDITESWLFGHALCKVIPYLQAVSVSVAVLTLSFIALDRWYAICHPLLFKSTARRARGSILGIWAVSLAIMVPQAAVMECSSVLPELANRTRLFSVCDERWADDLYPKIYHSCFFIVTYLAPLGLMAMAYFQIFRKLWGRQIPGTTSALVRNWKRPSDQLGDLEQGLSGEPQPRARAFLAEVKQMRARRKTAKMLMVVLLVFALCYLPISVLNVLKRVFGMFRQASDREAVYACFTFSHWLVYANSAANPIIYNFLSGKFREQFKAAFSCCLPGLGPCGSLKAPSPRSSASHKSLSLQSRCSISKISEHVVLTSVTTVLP

SMILES | IC50 (human orexin-1 receptor) [nM] | IC50 (human orexin-2 receptor) [nM] | concentration of the compound in brain [B] [8] [ng/g] | concentration of the compound in plasma [P] [8] [ng/mL] | effect on NREM sleep (Wistar rats) | effect on REM sleep (Wistar rats) | effect on active wake (Wistar rats) [%] | effect on home cage activity (Wistar rats) [%] | further results
CNC(=O)[C@@H](c1ccccc1)N1CCc2cc(OC)c(OC)cc2[C@@H]1CCc1ccc(C(F)(F)F)cc1 [(2R)-2-{(1S)-6,7-dimethoxy-1-[2-(4-trifluoromethyl-phenyl)-ethyl]-3,4-dihydro-1H-isoquinolin-2-yl}-N-methyl-2-phenyl-acetamide] |  |  |  |  |  |  |  |  | clinical efficacy in primary insomnia (humans): showed clinical efficacy; alertness (active wake and locomotion) (rat [1]): decrease alertness; time spent in both REM and NREM sleep (rat [1]): dose-dependently increase; cardiovascular responses to conditioned fear and novelty exposure (rats [2]): attenuated; activity in fear-potentiated startle paradigm (rat [3]): active; learning and memory (rats [4]): intact declarative and non-declarative learning and memory; brain levels of amyloid-beta and Aβ plaque deposition [5]: decreased; antidepressant-like activity (mouse): induce antidepressant-like activity; natural activation induced by orexin A (rats [6]): attenuate; pharmacological activity in nicotine self-administration (rat [7]): displayed pharmacological activity
Cc1ccc(-n2nccn2)c(C(=O)N2CCC[C@@]2(C)c2nc3cc(Br)cc(C)c3[nH]2)c1 [Example 5.19] | 9 | 20 | 3880 | 2095 | +31% | +69% | −28 | −46 | 
COc1ccc(-n2nccn2)c(C(=O)N2CCC[C@@]2(C)c2nc3c(C)c(Cl)ccc3[nH]2)c1 [Example 5.36] |  |  | 1808 | 1280 | +27% | +53% | −24 | −31 | 
Cc1ccc(-c2ncccn2)c(C(=O)N2CCC[C@@]2(C)c2nc3cc(Br)cc(C)c3[nH]2)c1 [Example 5.277] | 6 | 21 | 5880 | 3560 | +21% | +52% | −22 | −42 | 
Cn1c(SCC(=O)N2CCC[C@H]2C(=O)Nc2ccccc2-c2ccccc2)nc2ccccc21 [N-biphenyl-2-yl-1-{[(1-methyl-1H-benzimidazol-2-yl)sulfanyl]acetyl}-L-prolinamide] |  |  |  |  |  |  |  |  | nicotine-reinstatement for a conditioned reinforcer (rodents [9]): inhibited; behavioral (locomotor sensitization) and molecular (transcriptional responses) changes (rodents [10]): reduced
